Patent US20200360317A1, “CARBOXYLIC ACIDS FOR TREATING/PREVENTING A SKIN DISEASE” (Proponent Biotech GmbH, priority 2016, published 2020)

Experiments:
[1] = tested on: wound infection of injured skin; test: Treatment of infected wound of injured skin; type: in vivo; settings: skin treated with propionate vs skin treated with water
Excerpt: The study aimed at determining whether treatment with propionate promotes skin health of wound infection of injured skin.

[2] = in Locke-Ringer Solution
Excerpt: • Identification: Sodium propionate (Sigma-Aldrich, Cat. P5436-100G) • Test Item Name for Report: Sodium propionate • Description: Hygroscopic white powder • Batch Number: Lot.

[3] = tested on: allergic hypersensitivity induced by Nickel allergen (skin); test: Nickel-induced allergic contact dermatitis, topical treatment, blinded clinical score of skin lesion; type: in vivo, human; settings: 4×140 μl of 50 mM Propionate in Locke-Ringer solution over 8 hours, 60 hours after last Nickel contact; vs Locke-Ringer control; n=2
Method: The study aimed at determining whether treatment with propionate promotes skin health following allergic hypersensitivity (particularly allergic contact dermatitis).
Allergic hypersensitivity was induced through contact sensitization with Nickel allergen over a 12 hour time period.
The sum of the four scores given blinded to each subject (n=2) yielded in the clinical score. The results can be seen in FIGS. 1 and 2.

With `CCC(=O)[O-].[Na+]` [Sodium propionate] the “Appearance of skin lesions (FIG. 4)” value [1] was “lesions are significantly reduced”, the “Stability of Test Item in Solution” value [2] was at least 6 months and the “Clinical score of skin lesion (sum of four scores)” value [3] was “clinical score was significantly reduced”.
